In paper PMC12389355, “Physiologically Based Pharmacokinetic Modeling to Assess Perpetrator and Victim Cytochrome P450 2C Induction Risk” (Pharmaceutics, 2025):

Columns and labels:
CYP2B6 [1] = assay: CYP2B6 mRNA induction in HTC model
CYP2C8 [2] = assay: in vitro; conditions: human
CYP2C19 [3] = assay: CYP2C19 mRNA induction in HTC model
CYP2C9 [4] = assay: in vitro; conditions: human
CYP2C9 [5] = assay: in vitro; conditions: human, probe diclofenac (4-hydroxy diclofenac formation)
CYP2C9 [6] = assay: CYP2C9 mRNA induction in HTC model
CYP3A4 [7] = assay: CYP3A4 mRNA induction in human hepatocyte triculture (HTC) model
CYP2C9 [8] = assay: CYP2C9 enzyme activity induction in HTC model (diclofenac 4-hydroxylation)
CYP3A4 [9] = assay: CYP3A4 enzyme activity induction in HTC model (midazolam 1-hydroxylation)
CYP2C8 [10] = assay: CYP2C8 mRNA induction in HTC model
CYP2C19 [11] = assay: in vitro; conditions: human
CYP2B6 [12] = assay: in vitro; conditions: human
CYP2C19 [13] = assay: CYP2C19 enzyme activity induction in HTC model (omeprazole 5-hydroxylation)
CYP2C8 [14] = test system: CYP2C8; parameters: method as in References column of Tables 3 and 4 ([27]-[44]); conditions: victim drug; References of Tables 3 and 4 ([27]-[44]); cited from earlier work
CYP3A4 [15] = conditions: victim drug; References of Tables 3 and 4 ([27]-[44]); cited from earlier work
[16] = victim drug after administration with rifampicin; References of Table 4 ([27]-[43]), DIDB; cited from earlier work
Other CYPs = conditions: victim drug; ref [35],[36]; cited from earlier work
CYP2B6 [17] = test system: CYP2B6; parameters: method as in PMID 29802934; conditions: PHH spheroids; cited from earlier work
CYP2C19 [18] = test system: CYP2C19; parameters: method as in PMID 26658225; conditions: PHH spheroids, observed in two of the three donors; cited from earlier work
CYP2C8 [19] = test system: CYP2C8; parameters: method as in PMID 29802934; conditions: PHH spheroids; cited from earlier work
CYP3A4 [20] = assay: in vitro; conditions: human
[21] = Donor 1, nominal concentrations, 96 h

CNC(=O)c1ccc(N2C(=S)N(c3cnc(C#N)c(C(F)(F)F)c3)C(=O)C23CCC3)cc1F [Apalutamide, apalutamide]
EC50 (CYP2B6 [1]; Donor 2): 2980 nM
EC50 (CYP2B6 [1]; Donor 3): 2960 nM
EC50 at 96 h (CYP2C8 [2]): 1680 nM
EC50 (CYP2C19 [3]; Donor 2): 5220 nM
EC50 (CYP2C19 [3]; Donor 3): 6040 nM
EC50 at 96 h (CYP2C9 [4]): 794 nM
EC50 at 96 h (CYP2C9 [5]): 13100 nM
EC50 (CYP2C9 [6]; Donor 2): 419 nM
EC50 (CYP2C9 [6]; Donor 3): 474 nM
EC50 (CYP2C9 [8]; Donor 3): 23700 nM
EC50 (CYP2C8 [10]; Donor 2): 1220 nM
EC50 (CYP2C8 [10]; Donor 3): 1260 nM
EC50 at 96 h (CYP2C19 [11]): 4010 nM
EC50 at 96 h (CYP2B6 [12]): 4440 nM
EC50 (CYP2C19 [13]; Donor 1): 455 nM
EC50 (CYP2C19 [13]; Donor 2): 1030 nM
EC50 (CYP2C19 [13]; Donor 3): 865 nM

CCOc1cc(CC(=O)N[C@@H](CC(C)C)c2ccccc2N2CCCCC2)ccc1C(=O)O [Repaglinide, repaglinide]
fm CYP2C8 (CYP2C8 [14]): 0.26
fm CYP3A4 (CYP3A4 [15]): 0.74
% AUC Reduction (Clinically Observed) [16]: 57.5%

CC(NC(C)(C)C)C(=O)c1cccc(Cl)c1 (centres unmarked) [Bupropion, bupropion]
% AUC Reduction (Clinically Observed) [16]: 67.2%

CCCCNC(=O)NS(=O)(=O)c1ccc(C)cc1 [Tolbutamide, tolbutamide]
fm Other CYPs (Other CYPs): 0.15
% AUC Reduction (Clinically Observed) [16]: 63.5%

CO[C@H]1/C=C/O[C@@]2(C)Oc3c(C)c(O)c4c(O)c(c(/C=N/N5CCN(C)CC5)c(O)c4c3C2=O)NC(=O)/C(C)=C\C=C\[C@H](C)[C@H](O)[C@@H](C)[C@@H](O)[C@@H](C)[C@H](OC(C)=O)[C@@H]1C [Rifampicin, rifampicin]
EC50 (CYP2B6 [1]; Donor 2): 530 nM
EC50 (CYP2B6 [1]; Donor 3): 399 nM
EC50 at 96 h (CYP2C8 [2]; both): 260 to 504 nM
EC50 (CYP2C19 [3]; Donor 1): 1640 nM
EC50 (CYP2C19 [3]; Donor 2): 803 nM
EC50 (CYP2C19 [3]; Donor 3): 1470 nM
induction of CYP2B6 mRNA levels (CYP2B6 [17]): 9 fold
CYP2C19 induction (CYP2C19 [18]): 8 fold
EC50 (CYP2C8 [10]; Donor 2): 260 nM
EC50 (CYP2C8 [10]; Donor 3): 307 nM
EC50 at 96 h (CYP2C19 [11]; both): 803 to 1640 nM
EC50 at 96 h (CYP2B6 [12]; both): 399 to 530 nM
EC50 at 96 h (CYP2B6 [12]): 415 nM
induction of CYP2C8 mRNA levels (CYP2C8 [19]): 12 fold

NC(=O)N1c2ccccc2C=Cc2ccccc21 [Carbamazepine, carbamazepine]
EC50 (CYP2B6 [1]; Donor 2): 41900 nM
EC50 (CYP2B6 [1]; Donor 3): 59000 nM
EC50 (CYP2C19 [3]; Donor 2): 186000 nM
EC50 (CYP2C19 [3]; Donor 3): 182000 nM
EC50 at 96 h (CYP2C9 [4]): 9860 nM
EC50 at 96 h (CYP2C9 [5]): 41400 nM
EC50 (CYP2C8 [10]; Donor 1): 35600 nM
EC50 (CYP2C8 [10]; Donor 2): 20000 nM
EC50 (CYP2C8 [10]; Donor 3): 40200 nM
EC50 at 96 h (CYP2C19 [11]): 124000 nM
EC50 at 96 h (CYP2B6 [12]): 46900 nM
EC50 (CYP2C19 [13]; Donor 1): 8140 nM
EC50 (CYP2C19 [13]; Donor 2): 2050 nM
EC50 (CYP2C19 [13]; Donor 3): 18000 nM

O=C1Nc2ccc(Cl)cc2[C@@](C#CC2CC2)(C(F)(F)F)O1 [Efavirenz, efavirenz]
EC50 (CYP2C19 [3]; Donor 1): 8300 nM
EC50 (CYP2C19 [3]; Donor 3): 2910 nM
EC50 at 96 h (CYP2C9 [4]): 455 nM
EC50 at 96 h (CYP2C9 [5]): 4290 nM
EC50 (CYP2C8 [10]; Donor 1): 4480 nM
EC50 (CYP2C8 [10]; Donor 2): 1970 nM
EC50 (CYP2C8 [10]; Donor 3): 2950 nM
EC50 (CYP2C19 [13]; Donor 1): 946 nM
EC50 (CYP2C19 [13]; Donor 2): 297 nM
EC50 (CYP2C19 [13]; Donor 3): 2480 nM
